Experimental data from ChEMBL document CHEMBL1150936, “Antioxidative bromoindole derivatives from the mid-intestinal gland of the muricid gastropod Drupella fragum” (J Nat Prod, 1998).

assay: Antioxidant activity assessed as peroxide value relative to control; format: functional

Compared with `Cc1c(C)c2c(c(C)c1O)CC[C@@](C)(CCC[C@H](C)CCC[C@H](C)CCCC(C)C)O2`, `Cc1cc(C(C)(C)C)c(O)c(C(C)(C)C)c1` is lower in Activity (milliequivalent/kg): 0.062 for the first, 0.031 for the second.

Compared with `Oc1cc(Br)c(O)c2[nH]ccc12`, `Oc1c(Br)cc2[nH]ccc2c1O` is higher in Activity (milliequivalent/kg): 0.106 for the first, 0.194 for the second.

With `Oc1cc2cc[nH]c2cc1Br` the Activity (milliequivalent/kg) was 0.036.
